In patent US20250176550A1, “HERBICIDE COMPOSITION OF URACIL COMPOUND CONTAINING CARBOXYLATE FRAGMENT AND THE USE THEREOF” (Jiangsu Flag Chemical Industry Co., Ltd., priority 2022, published 2025):

Experiments:
Format in all cases: in vivo
digitaria sanguinalis = assay: Indoor virulence and combined effect, greenhouse pot test, pre-emergence soil spray treatment, fresh weight inhibition
Procedure: (§1) The active ingredients A and B are respectively screened and an indoor combined effect of the composition on weeds was evaluated by an indoor test and a field test, to determine a combined effect of the composition on weeds.
(§2) Quantitative seeds of Poaceae weeds (echinochloa crusgalli, Digitaria sanguinalis, setaria viridis, Eleusine indica, avena fatua, alopecurus japonicus, alopecurus aequalis, Lolium multiflorum) and broadleaf weeds (eclipta prostrata, rorippa dubia, Abutilon theophrasti, conyza canadensis, veronica persica, myosoton aquaticum, polygonum lapathifolium, galium aparine var. tenerum, alisma plantago-aquatica, geranium carolinianum) were sown in paper cup containing nutrient soil with a diameter of 7 cm, covered with soil for 1 cm after sowing. After pressing and watering, they were cultured in a greenhouse according to a conventional method. Poaceae weeds grew to 3˜4 leaf stage, broad-leaved weeds grew to 4˜6 leaf stage, spraying treatment to both stem and leaf was performed; and pre-seedling soil spray treatment was performed 24 hours after sowing. Following an experimental design dosage, a WP-2000 walking spray tower (spindle speed 96 mm/r, spray height 200 mm, effective spray amplitude of nozzle 350 mm, nozzle flow rate 390 mL/min, nozzle walking speed 210 mm/s) was used for the spray treatment. The experiment was repeated three times. After being treated, a sample material is placed in an operation hall, and after the drug solution is naturally dried out, the sample material is placed in a greenhouse and managed according to the conventional method. A reaction of weeds to the drug agent is observed and recorded, and a regularly visual check of a control effect of the drug agent on weeds was performed after the treatment.
(§3) All of original drugs were using acetone as a solvent, being diluted with 0.1 wt % emulsifier of Tween-80 aqueous solution, and being diluted right before using.
(§4) When determining a ratio or content of the active ingredient A and the active ingredient B, it should be measured from characteristics of action of both agents and virulence thereof, as well as the main purpose of use of a formula shall also be considered in. In the present study, on a basis of previous pre-test, the dosages of the active ingredient A and the active ingredient B were set, when being used alone and mixed, as shown in the following table. Water containing no agent, but containing the same solvent and emulsifier was used as a blank control.
(§5) Repeat 4 times for each treatment, 3 pots per treatment each time and 30 weed seeds were sown for each pot.
(§6) Adopting an absolute number survey method, using a blade to cut the whole seedling of surviving weed along soil surface, and weighting the fresh weight of the weed with an analytical balance. For weeds that had died, counting the fresh weight as zero.
(§7) Survey period and frequency: 21 days after the treatment, total 1 investigation.
(§8) The theoretical fresh weight inhibition rate (E0-Expected Efficacy=[…]) of each treatment combination was calculated by Gowing method, and then compared with the measured inhibition rate (E-Observed Efficacy) to evaluate the combined effect type of both on weeds. When E-E0 value was greater than 10%, it was counted as a synergistic effect, less than −10%, it was counted as an antagonistic effect, and between −10%˜10%, it was counted as an additive effect. According to a plurality of factors including an actual control efficacy, a herbicide characteristic, a formula balance and other factors to determine the best ratio. In the formula, X is the fresh weight inhibition rate of the ingredient A at a dosage of P; Y is the fresh weight inhibition rate of the active ingredient B at a dosage of Q.
(§9) The statistical results are shown in Table 1 to Table 44 below, except for those marked clearly as “pre-emergence treatment”, all others are “post-emergence treatment”. […]

eclipta prostrata [1] = assay: as above
Procedure: as §1, §2, §3, §4, §5, §6, §7, §8, §9

eleusine indica = assay: as above
Procedure: as §1, §2, §3, §4, §5, §6, §7, §8, §9

setaria viridis = assay: Indoor virulence and combined effect, greenhouse pot test, post-emergence stem and leaf spray, fresh weight inhibition
Procedure, shortened: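 Greenhouse potted weeds sprayed post-emergence on stem and leaf at 3–4 leaf stage, with A and B alone or mixed; acetone solutions diluted in 0.1 wt% Tween-80, solvent-emulsifier water as blank.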

veronica persica = assay: as above
Procedure, shortened: (§10)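 Weeds in greenhouse pots received a spray-tower treatment, either post-emergence at the 3–4 leaf (grasses) or 4–6 leaf (broadleaf) stage, or pre-emergence as a soil spray 24 h after sowing. Compounds were applied in acetone diluted with 0.1 wt% Tween-80 water, alone or mixed, in g/ha. Fresh weight inhibition was measured at 21 days, with synergy judged by Gowing expected efficacy (E−E0 >10%).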

eclipta prostrata [2] = assay: as above
Procedure, shortened: as §10

CCOC(=O)C(C)(C)OC(=O)c1cc(-n2c(=O)cc(C(F)(F)F)n(C)c2=O)c(F)cc1Cl [Compound A-250]
Fresh weight inhibition rate %, A single agent (digitaria sanguinalis; Table 39, A 15 g a.i./ha): 68.96%
Fresh weight inhibition rate %, A single agent (digitaria sanguinalis; Table 39, A 20 g a.i./ha): 75.50%
Fresh weight inhibition rate %, A single agent (digitaria sanguinalis; Table 39, A 25 g a.i./ha): 85.50%
Fresh weight inhibition rate %, A single agent (digitaria sanguinalis; Table 40, A 15 g a.i./ha): 68.96%
Fresh weight inhibition rate %, A single agent (digitaria sanguinalis; Table 40, A 20 g a.i./ha): 75.50%
Fresh weight inhibition rate %, A single agent (eclipta prostrata [1]; Table 28, A 5 g a.i./ha): 52.89%
Fresh weight inhibition rate %, A single agent (eclipta prostrata [1]; Table 28, A 10 g a.i./ha): 66.05%
Fresh weight inhibition rate %, A single agent (eclipta prostrata [1]; Table 28, A 15 g a.i./ha): 68.5%
Fresh weight inhibition rate %, A single agent (eclipta prostrata [1]; Table 28, A 20 g a.i./ha): 78.12%
Fresh weight inhibition rate %, A single agent (eleusine indica; Table 21, A 25 g a.i./ha): 69.44%
Fresh weight inhibition rate %, A single agent (eleusine indica; Table 21, A 30 g a.i./ha): 90.86%
Fresh weight inhibition rate %, A single agent (setaria viridis; Table 6, 10 g a.i./ha, post-emergence, 21 days after treatment): 52.54%
Fresh weight inhibition rate %, A single agent (setaria viridis; Table 6, 15 g a.i./ha, post-emergence, 21 days after treatment): 65.7%
Fresh weight inhibition rate %, A single agent (setaria viridis; Table 6, 20 g a.i./ha, post-emergence, 21 days after treatment): 78.77%
Fresh weight inhibition rate %, A single agent (setaria viridis; Table 8, 10 g a.i./ha, post-emergence, 21 days after treatment): 52.54%
Fresh weight inhibition rate %, A single agent (setaria viridis; Table 8, 15 g a.i./ha, post-emergence, 21 days after treatment): 65.7%
Fresh weight inhibition rate %, A single agent (setaria viridis; Table 8, 20 g a.i./ha, post-emergence, 21 days after treatment): 78.77%
Fresh weight inhibition rate %, A single agent (setaria viridis; Table 10, A 10 g a.i./ha): 52.54%
Fresh weight inhibition rate %, A single agent (setaria viridis; Table 10, A 15 g a.i./ha): 65.7%
Fresh weight inhibition rate %, A single agent (setaria viridis; Table 10, A 20 g a.i./ha): 78.77%
Fresh weight inhibition rate %, A single agent (veronica persica; Table 9, 10 g a.i./ha, post-emergence, 21 days after treatment): 68.79%
Fresh weight inhibition rate %, A single agent (veronica persica; Table 9, 15 g a.i./ha, post-emergence, 21 days after treatment): 70.47%
Fresh weight inhibition rate %, A single agent (veronica persica; Table 9, 20 g a.i./ha, post-emergence, 21 days after treatment): 82.86%
Fresh weight inhibition rate %, A single agent (veronica persica; Table 23, A 5 g a.i./ha): 62.6%
Fresh weight inhibition rate %, A single agent (veronica persica; Table 23, A 10 g a.i./ha): 68.79%
Fresh weight inhibition rate %, A single agent (veronica persica; Table 23, A 15 g a.i./ha): 70.47%
Fresh weight inhibition rate %, A single agent (veronica persica; Table 24, A 5 g a.i./ha): 62.6%
Fresh weight inhibition rate %, A single agent (veronica persica; Table 24, A 10 g a.i./ha): 68.79%
Fresh weight inhibition rate %, A single agent (veronica persica; Table 24, A 15 g a.i./ha): 70.47%
Fresh weight inhibition rate %, A single agent (veronica persica; Table 24, A 20 g a.i./ha): 82.86%
Fresh weight inhibition rate %, A single agent (veronica persica; Table 26, A 2 g a.i./ha): 24.6%
Fresh weight inhibition rate %, A single agent (veronica persica; Table 26, A 5 g a.i./ha): 62.6%
Fresh weight inhibition rate %, A single agent (veronica persica; Table 26, A 10 g a.i./ha): 68.79%
Fresh weight inhibition rate %, A single agent (veronica persica; Table 26, A 15 g a.i./ha): 70.47%

COCCOC(=O)C(C)(C)OC(=O)c1cc(-n2c(=O)cc(C(F)(F)F)n(C)c2=O)c(F)cc1Cl [Compound A-273]
Fresh weight inhibition rate %, A single agent (eclipta prostrata [2]; Table 11, A 2 g a.i./ha): 28.12%
Fresh weight inhibition rate %, A single agent (eclipta prostrata [2]; Table 11, A 4 g a.i./ha): 38.50%
Fresh weight inhibition rate %, A single agent (eclipta prostrata [2]; Table 11, A 8 g a.i./ha): 46.05%
Fresh weight inhibition rate %, A single agent (eclipta prostrata [2]; Table 11, A 16 g a.i./ha): 52.89%
Fresh weight inhibition rate %, A single agent (eclipta prostrata [2]; Table 12, A 4 g a.i./ha): 38.50%
Fresh weight inhibition rate %, A single agent (eclipta prostrata [2]; Table 12, A 8 g a.i./ha): 46.05%
Fresh weight inhibition rate %, A single agent (eclipta prostrata [2]; Table 12, A 16 g a.i./ha): 52.89%
Fresh weight inhibition rate %, A single agent (eclipta prostrata [2]; Table 42, A 2 g a.i./ha): 28.12%
Fresh weight inhibition rate %, A single agent (eclipta prostrata [2]; Table 42, A 4 g a.i./ha): 38.50%
Fresh weight inhibition rate %, A single agent (eclipta prostrata [2]; Table 42, A 8 g a.i./ha): 46.05%
Fresh weight inhibition rate %, A single agent (eclipta prostrata [2]; Table 42, A 16 g a.i./ha): 52.89%
Fresh weight inhibition rate %, A single agent (eclipta prostrata [2]; Table 43, A 4 g a.i./ha): 38.50%
Fresh weight inhibition rate %, A single agent (eclipta prostrata [2]; Table 43, A 8 g a.i./ha): 46.05%
